This is an account of results in US20240300946A1, “EGFR INHIBITORS” (Blueprint Medicines Corporation, priority 2021, published 2024).

Read-outs that look alike come from different tables or passages of the source.

In assay [1] the target is T1, EGFR (L858R T790 M C797S) (Homo sapiens, UniProt P00533, C797S/L858R/T790M).
T1 construct: purchased SignalChem E10-122VG
Nature of the assay: Biochemical EGFR inhibition assay (Caliper mobility shift), LRTMCS mutant at 1 mM ATP. The following applies: read-out: LRTMCS (PH) IC50 (nM) @ 1 mM ATP (Num). How it is done: Inhibitory effects of the compounds of the disclosure were measured in biochemical assays that measure the phosphorylation activity of EGFR enzyme phosphorylates 2.5 micromolar 5-FAM-[…]-CONH2 peptide substrate (FL-Peptide 22, PerkinElmer, 760366) in the presence of adenosine-5′-triphosphate (ATP) and varying concentrations of the test compound in 100 mM 2-[4-(2-hydroxyethyl)piperazin-1-yl]ethanesulfonic acid (HEPES), pH 7.5, 10 mM MgCl2, 0.015% Brij-35, 1 mM dithiothreitol (DTT), 1.0% dimethylsulfoxide (DMSO). Assays were performed at 1.0 mM ATP or at ATP Km of the EGFR enzymes. Reactions proceeded until between 10% to 20% total peptides were phosphorylated at room temperature (25° C.) and were terminated with 35 mM 2,2′,2″,2′″-(ethane-1,2-diyldinitrilo)tetraacetic acid (EDTA). Product was detected using the Caliper mobility shift detection method where the phosphorylated peptide (product) and substrate were electrophoretically separated and measured. Percent activity was plotted against log concentration of compound and points to generate an apparent IC50. The following enzyme forms of EGFR were examples that were used in these assays: • EGFR WT (SignalChem, E10-112G) • EGFR (L858R T790 M C797S) (SignalChem, E10-122VG) • EGFR (d746-750) T790 M C797S (SignalChem, E10-122UG) • EGFR L858R (SignalChem, E10-122BG) • EGFR (d746-750) (SignalChem, E10-122JG)

The subject of assay [2] is phosphorylation of EGFR in NCI-H1975 cell line that harbors the EGFR L858R T790 M mutations. As to the kind of experiment: NCI-H1975 pEGFR AlphaLISA assay. The class given is cell-based. The following applies: p-EGFR (Tyr1068), 4-5 hours incubation, read-out: Ext pEGFR H1975 GMean IC50 (nM) Protocol: @ Pharmaron AlphaLISA (Num). How it is done: Inhibitory effects of the compounds of the disclosure were evaluated in cellular assays that measure level of intracellular phosphorylation of EGFR in NCI-H1975 cell line that harbors the EGFR L858R T790 M mutations (ATCC, CRL-5908) using AlphaLISA sureFire ultra p-EGFR (Tyr1068) assay kit (PerkinElmer, ALSU-PEGFR-A50K). The NCI-H1975 cells were seeded at 12.5K/well in 22 μL into 384 well opti plate (PerkinElmer, 6007299) and adhering overnight at 37° C./5% CO2. On the next day, the test compounds and DMSO control were added into H1975 cell plate followed by incubation at 37° C./5% CO2 for 4-5 hours. The cells were then spin down in the 384-well plate and lysed with 10 μL of 1× AlphaLISA lysis buffer followed by shaking at 600 rpm for 10 minutes at room temperature. After that, 5 μL of an acceptor bead mix was added to each well followed by incubation at room temperature for 1.5-2 h in dark. Then 5 μL of a donor bead mix was added to each well followed by overnight incubation at room temperature in dark. On the next day, the plate was read at a compatible plate reader to obtain pEGFR signal. Percent of pEGFR inhibition was plotted against log concentration of compounds to generate IC50 values.

[3] abbreviates: Homo sapiens, NCI-H1975, NCI-H1975 cells.

T1 sequence (P00533 25-1210 T790M/C797S/L858R): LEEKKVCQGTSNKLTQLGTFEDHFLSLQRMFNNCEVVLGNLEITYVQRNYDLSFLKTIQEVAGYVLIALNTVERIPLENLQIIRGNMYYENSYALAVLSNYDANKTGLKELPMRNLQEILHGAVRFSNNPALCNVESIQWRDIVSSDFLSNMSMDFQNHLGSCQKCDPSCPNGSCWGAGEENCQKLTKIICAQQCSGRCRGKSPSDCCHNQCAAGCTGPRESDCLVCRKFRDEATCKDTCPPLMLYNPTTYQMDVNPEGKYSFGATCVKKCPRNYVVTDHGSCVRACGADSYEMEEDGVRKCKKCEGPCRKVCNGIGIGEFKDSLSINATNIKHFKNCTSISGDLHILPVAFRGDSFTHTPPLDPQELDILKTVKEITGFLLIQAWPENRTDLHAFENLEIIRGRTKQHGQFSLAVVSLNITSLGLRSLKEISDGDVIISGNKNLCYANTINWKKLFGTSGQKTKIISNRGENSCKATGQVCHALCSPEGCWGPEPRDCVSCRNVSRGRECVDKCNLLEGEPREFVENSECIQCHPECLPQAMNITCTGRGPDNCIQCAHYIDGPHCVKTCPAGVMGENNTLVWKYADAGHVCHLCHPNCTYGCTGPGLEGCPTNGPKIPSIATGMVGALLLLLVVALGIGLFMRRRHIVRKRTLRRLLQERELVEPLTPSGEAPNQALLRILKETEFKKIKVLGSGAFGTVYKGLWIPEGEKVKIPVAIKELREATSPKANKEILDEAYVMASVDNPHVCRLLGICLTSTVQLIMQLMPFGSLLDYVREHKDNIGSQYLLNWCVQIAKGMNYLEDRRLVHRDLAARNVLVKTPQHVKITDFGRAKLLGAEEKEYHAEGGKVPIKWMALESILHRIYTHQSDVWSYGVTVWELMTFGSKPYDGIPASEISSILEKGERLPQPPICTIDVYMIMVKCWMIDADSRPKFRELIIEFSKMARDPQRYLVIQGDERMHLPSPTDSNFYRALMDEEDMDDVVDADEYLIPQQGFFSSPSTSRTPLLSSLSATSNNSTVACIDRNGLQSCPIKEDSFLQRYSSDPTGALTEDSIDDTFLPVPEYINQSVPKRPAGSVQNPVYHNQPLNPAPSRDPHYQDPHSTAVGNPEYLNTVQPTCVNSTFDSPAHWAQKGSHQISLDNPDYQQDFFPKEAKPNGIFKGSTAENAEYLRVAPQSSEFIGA

In the case of `Cc1ncc(-c2nccc(Nc3cc4c(C(C)C)ccc(N5C[C@H](CS(C)(=O)=O)[C@H]5C)c4cn3)n2)s1` (single isomer, unassigned) [Example 20, 5-isopropyl-8-(2R,3S)-2-methyl-3-((methylsulfonyl)methyl)azetidin-1-yl)-N-(2-(2-methylthiazol-5-yl)pyrimidin-4-yl)isoquinolin-3-amine or 5-isopropyl-8-((2S,3R)-2-methyl-3-((methylsulfonyl)methyl)azetidin-1-yl)-N-(2-(2-methylthiazol-5-yl)pyrimidin-4-yl)isoquinolin-3-amine], the figures for the IC50 in assay [1] and in assay [2] (NCI-H1975 cells) were at most 15 nM and under 10 nM, respectively.
`CC(C)c1cnc(N2CC(CS(C)(=O)=O)C2)c2cnc(Nc3ccnc([C@H]4C[C@@H](O)C4)n3)cc12` [Example 6, (1s,3s)-3-(4-((5-isopropyl-8-(3-((methylsulfonyl)methyl)azetidin-1-yl)-2,7-naphthyridin-3-yl)amino)pyrimidin-2-yl)cyclobutan-1-ol]: the figures for the IC50 in assay [1] and in assay [2] (setting [3]) were 30 to 100 nM and over 50 nM, respectively.
On the same counts, the results for `CC(C)c1ccc(N2CC(CS(C)(=O)=O)C2)c2cnc(Nc3ccnc(C4=CCC5(CC4)OCCO5)n3)cc12` [Example 15, N-(2-(1,4-dioxaspiro[4.5]dec-7-en-8-yl)pyrimidin-4-yl)-5-isopropyl-8-(3-((methylsulfonyl)methyl)azetidin-1-yl)isoquinolin-3-amine] are 15 to 20 nM and 30 to 50 nM.
On the same counts, the results for `CC(C)c1ccc(N2CC(CS(C)(=O)=O)C2)c2cnc(Nc3ccnc(-c4cccnc4)n3)cc12` [Example 13, 5-isopropyl-8-(3-((methylsulfonyl)methyl)azetidin-1-yl)-N-(2-(pyridin-3-yl)pyrimidin-4-yl)isoquinolin-3-amine] are at most 15 nM and 10 to 20 nM.
On the same counts, the results for `CC(C)c1ccc(N2CC(CS(C)(=O)=O)C2)c2cnc(Nc3ccnc(C4CC(F)C4)n3)cc12` (stereo not shown) [Example 26, N′-(2-(3-fluorocyclobutyl)pyrimidin-4-yl)-5-isopropyl-8-(3-((methylsulfonyl)methyl)azetidin-1-yl)isoquinolin-3-amine] are 30 to 100 nM and over 50 nM.
For `CC(C)c1cnc(N2CC(CS(C)(=O)=O)C2)c2cnc(Nc3ccnc(C4CCC4)n3)cc12` [Example 5, N-(2-cyclobutylpyrimidin-4-yl)-5-isopropyl-8-(3-((methylsulfonyl)methyl)azetidin-1-yl)-2,7-naphthyridin-3-amine], the IC50 in assay [1] is 30 to 100 nM; in assay [2] (setting [3]), over 50 nM.
On to `C[C@H](CO)c1ccc(N2CC(CS(C)(=O)=O)C2)c2cnc(Nc3ccnc(-c4cnn(C)c4)n3)cc12` (single isomer, unassigned) [Example 19, (S)-2-(3-((2-(1-methyl-1H-pyrazol-4-yl)pyrimidin-4-yl)amino)-8-(3-((methylsulfonyl)methyl)azetidin-1-yl)isoquinolin-5-yl)propan-1-ol or (R)-2-(3-((2-(1-methyl-1H-pyrazol-4-yl)pyrimidin-4-yl)amino)-8-(3-((methylsulfonyl)methyl)azetidin-1-yl)isoquinolin-5-yl)propan-1-ol], for which the IC50 in assay [1] is at most 15 nM; in assay [2] (NCI-H1975 cells), over 50 nM.
On to `CC(C)c1cnc(N2CC(CS(C)(=O)=O)C2)c2cnc(Nc3ccnc(C45CC(CO)(C4)C5)n3)cc12` [Example 4, (3-(4-((5-isopropyl-8-(3-((methylsulfonyl)methyl)azetidin-1-yl)-2,7-naphthyridin-3-yl)amino)pyrimidin-2-yl)bicyclo[1.1.1]pentan-1-yl)methanol], for which the concentration for half-maximal inhibition (IC50) was 15 to 20 nM in assay [1] and over 50 nM in assay [2] (setting [3]).
For `CC(C)c1cnc(N2CC(CS(C)(=O)=O)C2)c2cnc(Nc3ccnc(C4(C)CC(=O)C4)n3)cc12` [Example 3, 3-(4-((5-isopropyl-8-(3-((methylsulfonyl)methyl)azetidin-1-yl)-2,7-naphthyridin-3-yl)amino)pyrimidin-2-yl)-3-methylcyclobutan-1-one] the same measures were over 100 nM and over 50 nM.
On the same counts, the results for `CC(C)c1ccc(N2CC(CS(C)(=O)=O)C2)c2cnc(Nc3ccnc([C@H]4C[C@@H]4C(F)F)n3)cc12` (single isomer, unassigned) [Example 16, N-(2-((1S,2S)-2-(difluoromethyl)cyclopropyl)pyrimidin-4-yl)-5-isopropyl-8-(3-((methylsulfonyl)methyl)azetidin-1-yl)isoquinolin-3-amine or N-(2-((1R,2R)-2-(difluoromethyl)cyclopropyl)pyrimidin-4-yl)-5-isopropyl-8-(3-((methylsulfonyl)methyl)azetidin-1-yl)isoquinolin-3-amine] are over 100 nM and over 50 nM.
In the case of `CC(C)c1cnc(N2CC(CS(C)(=O)=O)C2)c2cnc(Nc3ccnc([C@]4(C)C[C@@H](O)C4)n3)cc12` (single isomer, unassigned) [Example 24, (1r,3r)-3-(4-((5-isopropyl-8-(3-((methylsulfonyl)methyl)azetidin-1-yl)-2,7-naphthyridin-3-yl)amino)pyrimidin-2-yl)-3-methylcyclobutan-1-ol or (1s,3s)-3-(4-((5-isopropyl-8-(3-((methylsulfonyl)methyl)azetidin-1-yl)-2,7-naphthyridin-3-yl)amino)pyrimidin-2-yl)-3-methylcyclobutan-1-ol], the figures for the IC50 in assay [1] and in assay [2] (setting [3]) were 30 to 100 nM and over 50 nM, respectively.
